Tests used:
ProMMP-2 = assay: Solid-phase binding of [125I]-proMMP-2 to immobilized collagens/peptides (microwells); set-up: species or system human; details: for Binding of [125I]-MMPs: ProMMP-2, 2 ng/well, coated wells, 4°C, 2 h, residual radioactivity, mean ± SD, at least five experiments in triplicate
Description: (§1) Human recombinant proMMPs and in vitro activated MMPs were obtained from Invitek and were labeled with the [^125I]-Bolton-Hunter reagent according to the manufacturer's instructions (PerkinElmer, Rodgau, Germany) before the buffer was exchanged for phosphate-buffered saline (PBS) with 0.05% (vol/vol) Tween 20 by gel filtration as described previously. Specific radioactivity for [^125I]-MMPs was 3-9 × 10^4 cpm/ng. Precipitation with 10% (wt/vol) trichloroacetic acid and 200 μg of BSA recovered 96% to 100% of protein-bound radioactivity. Aliquots of labeled MMPs were frozen and stored at -80°C. The activity and integrity were checked by substrate gel zymography using SDS-PAGE and autoradiography with overnight exposure to Biomax MS film (Kodak, Stuttgart, Germany) (Figure 2A).
(§2) Native human CI, CIII and CVI were purified from skin tissue and placenta. The CI single chains α1(I) and α2(I) were obtained and modified as described previously. To prepare defined fragments, 2 mg of α1(I) were dissolved in 1 ml of 70% (vol/vol) formic acid at room temperature, the tubes were flushed with nitrogen for 10 min, and then 2 mg of CB were added. After incubation for 4 h at 37°C, free CB was neutralized and the samples were lyophilized. The peptides CB3, CB6, CB7 and CB8 were separated from the reaction mixture by gel filtration followed by ion-exchange chromatography. The resulting peptides were characterized by amino acid analysis and SDS-PAGE [45, 46]. The CB peptides had the following melting temperatures: CB3, 23.9°C; CB6, 26.7°C; CB7, 28.1°C; and CB8, 28.0°C [31].
(§3) The following collagen analogs and control peptides were synthesized as described previously: (GPO)10, H-Gly-Cys-Hyp-(Gly-Pro-Hyp)10-Gly-Cys-Hyp-Gly-NH2; (GPP)10, H-Gly-Cys-Pro-(Gly-Pro-Pro)10-Gly-Cys-Pro-Gly-NH2; and GAP, H-Gly-Ala-Cys-(Gly-Ala-Pro)5-Gly-Phe-Hyp-Gly-Glu-Arg-(Gly-Ala-Pro)5-NH2. Peptides (POG)10, (PPG)10 and (POG)5 were purchased from Peptide International (Louisville, KY, USA). Spontaneous triple-helix assembly was approved by polarimetry over a 10-cm path length at 1°C/min in 10 mM phosphate buffer, pH 7.4. At 5 mg/ml, midpoints of melting curves occurred at 82.3 ± 1.4°C for (GPO)10 and at 45.8 ± 0.8°C for (GPP)10. […] Graphs were calculated from the primary data using a custom fitting program written by D.A. Slatter (Department of Biochemistry, University of Cambridge, Cambridge, UK [48]) to model different possible transitions. All collagens, CI derivatives and peptides were stored in stock solutions of 2 mg/ml in 150 mM acetic acid at -20°C.
(§4) ProMMP-2 and proMMP-9 or actMMP-2 and actMMP-9 were bound to nitrocellulose and polystyrene-immobilized native collagens, CI chains, CB peptides or structural analogs. Serial dilutions of collagens or CI derivatives in 150 mM acetic acid were dotted at 3 × 3 μl to a nitrocellulose membrane with high protein-binding capacity (GE Healthcare, Munich, Germany). Air-dried membranes were blocked with PBS and 0.3% (vol/vol) Tween 20 overnight at 4°C, washed three times, and incubated with 1 ng/ml [^125I]-pro- and actMMP-2 and pro- and actMMP-9 in PBS and 0.3% (vol/vol) Tween 20 for 2 h at room temperature. Membranes were washed again and air-dried, and bound MMP was monitored by autoradiography. In parallel, polystyrene microtiter plates (Dynex, Chantilly, VA, USA) were coated with collagen proteins and peptides. Here 2 μg/well or 200 ng/well proteins and peptides or BSA as control were immobilized in 100 μl of 50 mM ammonium bicarbonate buffer, pH 9.6, by overnight incubation at 4°C. Immobilization efficacies were 20% to 45% of total proteins. Wells were washed three times with PBS, and nonspecific binding sites were blocked with PBS and 0.05% (vol/vol) Tween 20 for 1 h at room temperature. All incubation steps were performed with 2 ng of [^125I]-MMPs at 4°C for 2 h. […]

ActMMP-2 = assay: Solid-phase binding of [125I]-actMMP-2 to immobilized collagens/peptides (microwells); set-up: species or system human; details: ActMMP-2, 2 ng/well; coated wells; 4°C, 2 h; residual radioactivity; mean ± SD, at least five experiments in triplicate
Description: as §1, §2, §3, §4

[1] = Triple-helix melting temperature; format: physicochemical; details: polarimetry; 5 mg/ml; 10 mM phosphate buffer, pH 7.4, 1°C/min
Description: as §2, §3

ActMMP-9 = assay: Solid-phase binding of [125I]-actMMP-9 to immobilized collagens/peptides (microwells); set-up: species or system human; details: ActMMP-9, 2 ng/well; coated wells; 4°C, 2 h; residual radioactivity; mean ± SD, at least five experiments in triplicate
Description: as §1, §2, §3, §4

ProMMP-9 = assay: Solid-phase binding of [125I]-proMMP-9 to immobilized collagens/peptides (microwells); set-up: species or system human; details: for Binding of [125I]-MMPs: ProMMP-9, 2 ng/well, coated wells, 4°C, 2 h, residual radioactivity, mean ± SD, at least five experiments in triplicate
Description: as §1, §2, §3, §4

Substance	Binding of [125I]-MMPs (ProMMP-2)	binding of proMMP vs respective actMMP (ProMMP-2; proMMP-2 vs actMMP-2 (stated jointly for MMP-2 and MMP-9))	Binding of [125I]-MMPs (ActMMP-2)	midpoint of melting curve [1]	Binding of [125I]-MMPs (ActMMP-9)	Binding of [125I]-MMPs (ProMMP-9)	binding of proMMP vs respective actMMP (ProMMP-9; proMMP-9 vs actMMP-9 (stated jointly for MMP-2 and MMP-9))	interaction with control peptides (ProMMP-2; pro- and act-forms of MMP-2 and MMP-9, in words)
H-Gly-Cys-Hyp-(Gly-Pro-Hyp)10-Gly-Cys-Hyp-Gly-NH2 [(GPO)10, triple-helical Hyp-containing collagen analog]	13.0 ± 3.5 % of maximum control	two- to sevenfold more strongly	6.2 ± 3.1 % of maximum control	82.3 ± 1.4 °C	5.4 ± 0.6 % of maximum control	36.1 ± 1.7 % of maximum control	two- to sevenfold more strongly	–
H-Gly-Cys-Pro-(Gly-Pro-Pro)10-Gly-Cys-Pro-Gly-NH2 [(GPP)10, Triple-helical Gly-Pro-Pro (GPP)10, devoid of Hyp]	3.6 ± 2.0 % of maximum control	–	2.1 ± 0.7 % of maximum control	45.8 ± 0.8 °C	0.9 ± 0.4 % of maximum control	4.9 ± 0.7 % of maximum control	–	only marginal interactions

Reference: PMC3024946, “Hydroxyproline-containing collagen analogs trigger the release and activation of collagen-sequestered proMMP-2 by competition with prodomain-derived peptide P33-42” (Fibrogenesis & Tissue Repair, 2011)
